IC50 data for 34 compounds are collected here from PubChem BioAssay AID789 (SRMLSC, 2007).

Molecules are shown by their SMILES. Calls of active or inactive are those of the source. How the calls were made is not given here. A value given as a limit tells only on which side of the number the result lay.

Test [1] has as its system S. cerevisiae apl2Δ mutant growth inhibition. Description: growth inhibition of apl2Δ yeast, dose response, selectivity assay for post-Golgi transport modulator project, S. cerevisiae, secondary screen, background strain comparison (AID 789).
Assay in test [2]: as above
Particulars: S. cerevisiae background (wild-type parent) strain growth inhibition.

Turning to `C=C(C)COc1ccc(-c2ncncc2Oc2ccc(OC)cc2)c(O)c1`, the IC50 is > 10 µM (inactive) in test [1] and greater than 10 µM in test [2].

Consider `OC(Cn1ccnc1)c1ccc(Cl)cc1Cl` (stereo not drawn), for which the IC50 is > 10 µM (inactive) in test [1] and greater than 10 µM in test [2].

For `Cc1ccc2nc(C)cc(OCC(=O)O)c2c1`, the IC50 in test [1] is > 10 µM (inactive); in test [2], greater than 10 µM.

As for `C/C(CCC12CC3CC(CC(C3)C1)C2)=N\NC(N)=S`, the results for the IC50 in test [1] and in test [2] were 4.94 µM and 5.28 µM, respectively.

Turning to `CCC(=O)c1ccc(N2CCN(C(=O)c3ccc(Br)cc3)CC2)c(F)c1`, the results for the IC50 in test [1] and in test [2] were > 10 µM (inactive) and greater than 10 µM, respectively.

In the case of `Nc1ccc(Oc2ccc3nc(-c4ccccc4)c(-c4ccccc4)nc3c2)cc1`, the figures for the IC50 in test [1] and in test [2] were 2 µM (inactive) and 1.21 µM, respectively.

As to `CC1CN(CC(O)COc2ccc(C(C)C)cc2)CC(C)O1` (stereo not drawn), the IC50 in test [1] is > 10 µM (inactive); in test [2] it was greater than 10 µM.

`CCC(=O)N(CCO)Cc1cc2ccc(C)c(C)c2[nH]c1=O`: the IC50 in test [1] was > 10 µM (inactive); in test [2], greater than 10 µM.

On to `Cc1cccc(N2CCN(CC(=O)Nc3nccs3)CC2)c1C`, for which the IC50 in test [1] was > 10 µM (inactive); in test [2], greater than 10 µM.

`COC(=O)c1ccc(CSc2nnc(NC(C)C)s2)cc1`: the IC50 in test [1] was > 10 µM (inactive); in test [2], greater than 10 µM.

Turning to `CCCn1nc([N+](=O)[O-])c(C(C#N)c2nc3ccccc3s2)c(Cl)c1=O` (stereo not drawn), the IC50 in test [1] is 13.7 µM (inactive); in test [2], 2.16 µM.

For the compound `O=C(CCC(=O)OCC(=O)c1ccc(F)cc1)NC1CCCCC1`, the IC50 in test [1] was > 10 µM (inactive); in test [2], greater than 10 µM.

With `CC1CCCCC1NC(=O)CSc1nnnn1-c1ccccc1` (stereo not drawn), the IC50 was > 10 µM (inactive) in test [1] and greater than 10 µM in test [2].

As to `CC1CC(C)CN(CC(C)(C)NS(=O)(=O)c2ccc(Cl)cc2)C1` (stereo not drawn), the IC50 in test [1] is > 10 µM (inactive); in test [2], greater than 10 µM.

Consider `Cc1cccc(-n2c(N)c(C(=O)NCCN3CCOCC3)c3nc4ccccc4nc32)c1`, for which the IC50 in test [1] is > 10 µM (inactive); in test [2], greater than 10 µM.

With `COc1cc2[nH]c(=S)n(CCCN3CCOCC3)c(=O)c2cc1OC`, the results for the IC50 in test [1] and in test [2] were > 10 µM (inactive) and greater than 10 µM, respectively.

For the compound `Clc1ccc(-c2cnc(Oc3ccccc3)nc2)cc1`, the IC50 in test [1] was > 10 µM (inactive); in test [2], greater than 10 µM.

`CCCn1c(SCc2cc(=O)oc3ccc4ccccc4c23)n[nH]c1=O`: the IC50 was > 10 µM (inactive) in test [1] and greater than 10 µM in test [2].

Turning to `COc1ccc(N2CCN(C(=O)CCNS(=O)(=O)c3ccc(Br)s3)CC2)cc1`, the values for the IC50 in test [1] and in test [2] were > 10 µM (inactive) and greater than 10 µM, respectively.

Regarding `Clc1ccc(Cn2nnc(-c3ccc(CN4CCOCC4)cc3)n2)cc1`, the IC50 in test [1] is 18.9 µM; in test [2], greater than 10 µM.

In the case of `CCn1c(-c2c[nH]c3ccccc23)n[nH]c1=S`, the IC50 in test [1] was > 10 µM (inactive); in test [2], greater than 10 µM.

With `Fc1ccc(Cn2nnc(-c3ccc(CN4CCOCC4)cc3)n2)cc1`, the IC50 in test [1] is > 10 µM (inactive); in test [2], greater than 10 µM.

On to `COc1ccccc1N1CCN(C2CCN(C(=O)c3cc(OC)c(OC)c(OC)c3)CC2)CC1`, for which the values for the IC50 in test [1] and in test [2] were > 10 µM (inactive) and greater than 10 µM, respectively.

As to `CCOC(=O)c1c(-n2c(C)cc(C=C3C(=O)NC(=S)NC3=O)c2C)sc2c1CCCC2`, the IC50 in test [1] is > 10 µM (inactive); in test [2], 11.5 µM.

Consider `N#CC1=C2SCC(O)(c3ccccc3)N2C(=O)CC1c1ccccc1` (stereo not drawn), for which the IC50 in test [1] is > 10 µM (inactive); in test [2], greater than 10 µM.

`CCOc1ccc(NC(=O)C/C(N)=N/O)cc1`: the IC50 is > 10 µM (inactive) in test [1] and greater than 10 µM in test [2].

Consider `C=CCc1ccc(OCC(O)CN2CCC(Cc3ccccc3)CC2)c(OC)c1` (stereo not drawn), for which the IC50 is 12.5 µM in test [1] and 19.1 µM in test [2].

On to `N=c1nc(N)nc2n1NC(c1ccc(F)cc1)=CS2`, for which the values for the IC50 in test [1] and in test [2] were > 10 µM (inactive) and greater than 10 µM, respectively.

Regarding `COCCCn1c2nc3ccccc3nc2c2c(=O)n(-c3ccccc3OC)cnc21`, the IC50 in test [1] is > 10 µM (inactive); in test [2], greater than 10 µM.

On to `O=C(Nc1cc(C(F)(F)F)ccc1-n1cncn1)c1ccc(-c2ccccc2)cc1`, for which the IC50 in test [1] was > 10 µM (inactive); in test [2], greater than 10 µM.

For the compound `Cc1cccc(CS(=O)(=O)Cc2ccc(C(=O)NCCCN3CCCC3)o2)c1`, the values for the IC50 in test [1] and in test [2] were > 10 µM (inactive) and greater than 10 µM, respectively.

Turning to `c1ccc(COc2ccc(CN3CCN(c4ccccn4)CC3)cc2)cc1`, the IC50 was > 10 µM (inactive) in test [1] and greater than 10 µM in test [2].

Take `CCOc1cc(/C=C\[N+](=O)[O-])ccc1OCC(=O)Nc1ccccc1C`: the IC50 in test [1] was > 10 µM (inactive); in test [2] it was greater than 10 µM.

In the case of `Clc1ccc(-c2n[nH]c3c2CCC3)cc1Cl`, the IC50 is 2.74 µM (inactive) in test [1] and 1.81 µM in test [2].

A word on the IC50: it is the concentration that inhibits the measured activity by half.
